Test results: patent US5166214A, “Use of imidazoles for the treatment of atherosclerosis” (priority 1990, dated 1992)
Like-named read-outs stand apart in the source and are kept apart here.

Experiments:
[1] = biological target: T1, Acyl-CoA: Cholesterol Acyltransferase (ACAT) (Rattus norvegicus, UniProt Q7TQM4); assay: Inhibition of acyl-CoA: cholesterol acyltransferase (ACAT) in hepatic microsomes (in vitro); type: biochemical, rat (male Sprague Dawley)
T1 construct: Microsomes were obtained by differential centrifugation; from tissue; host or cells: liver microsomes of male Sprague Dawley rats
T1 sequence (Q7TQM4 1-524): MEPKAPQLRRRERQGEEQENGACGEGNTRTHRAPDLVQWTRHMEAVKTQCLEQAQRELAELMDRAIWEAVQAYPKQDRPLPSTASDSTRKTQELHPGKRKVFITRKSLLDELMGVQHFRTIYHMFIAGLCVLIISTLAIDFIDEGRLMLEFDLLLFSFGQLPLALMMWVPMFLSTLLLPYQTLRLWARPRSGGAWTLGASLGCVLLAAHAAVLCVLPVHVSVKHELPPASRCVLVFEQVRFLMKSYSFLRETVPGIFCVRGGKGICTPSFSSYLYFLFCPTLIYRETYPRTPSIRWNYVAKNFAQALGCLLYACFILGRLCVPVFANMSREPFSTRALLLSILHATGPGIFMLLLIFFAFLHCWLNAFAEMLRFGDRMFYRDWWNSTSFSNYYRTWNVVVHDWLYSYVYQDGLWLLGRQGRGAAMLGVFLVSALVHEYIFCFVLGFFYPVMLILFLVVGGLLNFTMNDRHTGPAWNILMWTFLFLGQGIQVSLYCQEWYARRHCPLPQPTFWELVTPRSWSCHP
Procedure: A. Assay of the Inhibition of Acyl-CoA: Cholesterol Acyltransferase (ACAT) in Hepatic Microsomes
The ability of the compounds to inhibit ACAT, the enzyme responsible for the intracellular synthesis of cholesteryl esters, was tested as follows. Male Sprague Dawley rats weighing 150-300 g, were fed rat chow ad libitum. The animals were fasted for twenty-four hours prior to being sacrificed by decapitation. The livers were perfused in situ with 50 ml of cold 0.25M sucrose, excised, and homogenized in three volumes of 0.1M phosphate buffer, pH 7.4, that contained 0.5 mM EDTA (ethylenediaminetetraacetic acid), 1.0 mM glutathione, 0.25M sucrose and […]. Microsomes were obtained by differential centrifugation; the supernatant from an initial spin at 15,000×g for 15 minutes was centrifuged at 105,000×g for 1 hour to pellet the microsomes. The microsomes were suspended in homogenization buffer, reisolated by centrifugation, and stored at -70° C. Microsomes were used within one month of preparation.
The control assay in a final volume of 200 μl consisted of 200 μg of microsomal protein, 75 μM ^14 C-oleoyl-CoA (10,000 dpm/nmol) in 0.1M phosphate, pH 7.4, that contained 1 mM glutathione. Compounds were added in 5 μl of DMSO (dimethyl sulfoxide) and additional controls were run with DMSO only. All components, except the oleoyl-CoA, were preincubated for 15 min. at 37° C. prior to the initiation of the reaction by the addition of oleoyl-CoA. The assay was terminated after 10 min by the addition of 4 ml of chloroform:methanol (2:1, v/v). 20,000 dpm of ^3 H-cholesteryl oleate and 10 μg of unlabeled cholesteryl oleate and oleic acid were added as an internal standard and carriers, respectively. After allowing 10 min. for lipid extraction, the samples were centrifuged at 1,000×g for 10 min. to separate the solvent layers. The chloroform layer containing the neutral lipids was spotted onto a Baker SI250-Pa silica gel TLC plate and the plate developed using a hexane: diethyl ether: acetic acid (170:30:1 v/v/v) mobile phase. The lipids were visualized by their interaction with iodine vapor and the cholesteryl ester spot was scraped into a scintillation vial and counted.

[2] = tested on: murine macrophage-like cell line J774.A1; assay: Inhibition of cholesterol esterification in mammalian cells (macrophage assay); type: cell-based; conditions: J774.A1 macrophages loaded with ac-LDL, 14C-oleic acid; read-out: Cholesterol Esterification IC50
Procedure: B. Assay of the Inhibition of Cholesterol Esterification in Mammalian Cells
The esterification of cholesterol was determined in the murine macrophage-like cell line J774.A1. Cells were seeded in 35 mm wells at a density of 300,000 cells per well in 2 mls of Dulbecco's Eagle Medium (DMEM) supplemented with 10% fetal bovine serum (FBS). Cells were incubated at 37° C. in an atmosphere of 5% CO2 and 93% humidity. After 24 hours the media was changed to 0.68 mls 10% FBS-DMEM containing 34 μg of acetylated human low density lipoprotein (ac-LDL) to increase the intracellular concentration of cholesterol and promote esterification. At 41 hours, various inhibitors were added to the cells in DMSO (10 μl/ml maximum). At 43 hours, the cells were pulsed with 0.1 mM ^14 C-oleic acid (10,000 dpm/nmol) complexed with BSA (bovine serum albumin) to follow cholesterol ester formation. The experiment was terminated at 45 hours by washing the monolayers 3 times with 3 ml of Tris-buffered saline at 4° C. The lipids were extracted by incubating the monolayers with 1.5 ml of hexane:isopropanol (3:2, v/v) for 30 min. under gentle agitation. During this period, 10,000 dpm 3H-cholesteryl linoleate and 10 μg of cholesteryl oleate were added as an internal standard and carrier respectively. The organic solvent was removed and the cells were washed with an additional 1.0 ml of hexane: isopropanol which was combined with the original extract. The cells were allowed to dry overnight, digested with 1.5 ml of 0.2N sodium hydroxide for 1 hour and an aliquot of the solubilized protein used for protein determination using the Lowry method. The organic extract was taken to dryness, the residue resuspended in 100 μl of chloroform and the lipids separated on silica gel impregnated glass fiber plates using a hexane:diethylether:acetic acid (170:30:1, v/v/v) solvent system. Individual lipids were visualized with iodine and the cholesteryl ester spot cut out and transferred to scintillation vials to determine the amount of radioactivity. The conversion of oleic acid to cholesteryl ester in the control averaged 0.54 […] and was increased upon the addition of ac-LDL to about 10.69±0.69 […]. […] It should be noted that many of the intermediates had inhibitory activity in the in vitro ACAT assay and in the macrophage assay.

[3] = rat hepatic microsomes, 75 μM 14C-oleoyl-CoA, pH 7.4, 37° C., read-out: In Vitro ACAT IC50

SMILES | IC50 [1, 3] [nM] | IC50 [2] [nM] | IC50 ([1]; In Vitro ACAT IC50) [nM] | IC50 ([1]; In Vitro ACAT IC50, rat hepatic microsomes, 75 μM 14C-oleoyl-CoA, pH 7.4, 37° C.) [nM]
CCCCCCCN(CCCCCSc1nc(-c2ccccc2)c(-c2ccccc2)[nH]1)C(=O)Nc1ccccc1 [Example 2, N-[5-(4,5-diphenyl-1H-imidazol-2-ylthio)pentyl]-N-heptyl-N'-phenylurea] | 3 | 800 | – | –
CCCCN(CCCCCCCCSc1nc(-c2ccccc2)c(-c2ccccc2)[nH]1)C(=O)Nc1ccc(F)cc1F [Example 4, N-butyl-N'-(2,4-difluorophenyl)-N-[8-(4,5-diphenyl-1H-imidazol-2-ylthio)octyl]urea] | 60 | 4600 | – | –
CCCCCCCN(CCCCCSc1nc(-c2ccccc2)c(-c2ccccc2)[nH]1)C(=O)Nc1ccc(OC)cc1OC [Example 5, N'-(2,4-dimethoxyphenyl)-N-[5-(4,5-diphenyl-1H-imidazol-2-ylthio)pentyl]-N-heptylurea] | 12 | 2500 | – | –
CCCCCCCN(CCCCCSc1nc(-c2ccccc2)c(-c2ccccc2)[nH]1)C(=O)NC [Example 7, N-[5-(4,5-diphenyl-1H-imidazol-2-ylthio)pentyl]-N-heptyl-N'-methylurea] | 41 | 7500 | – | –
CCCN(CCSc1nc(-c2ccccc2)c(-c2ccccc2)[nH]1)C(=O)Nc1ccc(F)cc1F [Example 9, N'-(2.4-difluorophenyl)-N[-2-(4,5-diphenyl-1H-imidazol-2-ylthio)ethyl]-N-propylurea] | 930 | 11200 | – | –
CCCCCCCN(CCCCCSc1nc(-c2ccccc2)c(-c2ccccc2)n1-c1ccccc1)C(=O)Nc1ccc(F)cc1F [Example 20] | 20 | 54500 | – | –
CCCCCCCN(CCCCCSc1nc(-c2ccccc2)c(-c2ccccc2)[nH]1)C(=O)Nc1cccc(F)c1 [Example 53, N-[5-(4,5-diphenyl-1H-imidazol-2-ylthio)pentyl]-N'-(3-fluorophenyl)-N-heptylurea] | 17 | 400 | – | –
CCCCCCCN(CCCCCSc1nc(-c2ccccc2)c(-c2ccccc2)[nH]1)C(=O)Nc1c(Cl)cccc1Cl [Example 64, N'-(2,6-dichlorophenyl)-N-[5-(4,5-diphenyl-1H-imidazol-2-ylthio)pentyl]-N-heptylurea] | 30 | 600 | – | –
CCCCCCCN(CCCCCSc1nc(-c2ccccc2)c(-c2ccccc2)[nH]1)C(=O)Nc1ccc(C#N)cc1 [Example 85, N'-(4-cyanophenyl)-N-[5-(4,5-diphenyl-1H-imidazol-2-ylthio)pentyl]-N-heptylurea] | – | 3100 | 60 | –
CCCCCCCCNC(=O)N(CCCCCCC)CCCCCSc1nc(-c2ccccc2)c(-c2ccccc2)[nH]1 [Example 97, N-[5-(4,5-diphenyl-1H-imidazol-2-ylthio)pentyl]-N-heptyl-N'-octylurea] | 25 | 700 | – | –
CCCCCCCN(CCCCCSc1nc(-c2ccccn2)c(-c2ccccn2)[nH]1)C(=O)Nc1ccc(F)cc1F [Example 107, N-[5-[4,5-bis(2-pyridinyl)-1H-imidazol-2-ylthio]pentyl]-N'-(2,4-difluorophenyl)-N-heptylurea] | 1000 | 2300 | – | –
CCCCCCCN(CCCCCSc1nc(-c2cccs2)c(-c2cccs2)[nH]1)C(=O)Nc1ccc(F)cc1F [Example 110, N-[5-[4,5-bis(2-thienyl)-1H-imidazol-2-ylthio]pentyl]-N'-(2,4-difluorophenyl)-N-heptylurea] | 60 | 900 | – | –
CCCCCCCN(CCCCCSc1nc(-c2ccc(F)cc2)c(-c2ccc(F)cc2)[nH]1)C(=O)Nc1ccc(F)cc1F [Example 114, N-[5-[4,5-bis(4-fluorophenyl)-1H-imidazol-2-ylthio]pentyl]-N'-(2,4-difluorophenyl)-N-heptylurea] | 40 | 3500 | – | –
CCCCCCCN(CCCCCSc1nc(-c2ccc(OC)cc2)c(-c2ccc(OC)cc2)[nH]1)C(=O)Nc1ccc(F)cc1F [Example 118, N-[5-[4,5-bis(4-methoxyphenyl)-1H-imidazol-2-ylthio]pentyl]-N'-(2,4-difluorophenyl)-N-heptylurea] | 170 | 100 | – | –
CCCCCCCN(CCCCCSc1nc(-c2ccc(C)cc2)c(-c2ccc(C)cc2)[nH]1)C(=O)Nc1ccc(F)cc1F [Example 122, N-[5-[4,5-bis(4-methylphenyl)-1H-imidazol-2-ylthio]pentyl]-N'-(2,4-difluorophenyl)-N-heptylurea] | 80 | 300 | – | –
CCCCCCCN(CCCCCSc1nc(-c2ccc(Cl)cc2)c(-c2ccc(Cl)cc2)[nH]1)C(=O)Nc1ccc(F)cc1F [Example 137] | 76 | 3400 | – | –
CCCCCCCN(CCCCCSc1ncc[nH]1)C(=O)Nc1ccc(F)cc1F [Example 186] | 2850 | 6200 | – | –
CCCCCCCN(CCCCCSc1nc(C(C)C)c(C(C)C)[nH]1)C(=O)Nc1ccc(F)cc1F [Example 188, N-[5-[4,5-bis(1-methylethyl)-1H-imidazol-2-ylthio]pentyl]-N'-(2,4-difluorophenyl)-N-heptylurea] | 20 | 900 | – | –
CCCCCCCN(CCCCCSc1nc(CCC)c(CCC)[nH]1)C(=O)Nc1ccc(F)cc1F [Example 193, N'-(2,4-difluorophenyl)-N-[5-(4,5-dipropyl-1H-imidazol-2-ylthio)pentyl]-N-heptylurea] | 60 | 2700 | – | –
CCCCCCCN(CCCCCSc1nc(-c2ccccn2)c(-c2ccccn2)[nH]1)C(=O)Nc1ccc(F)cc1F [Example 194] | 1900 | 4100 | – | –
CCCCCCCN(CCCCCSc1nc(-c2cccc(OC)c2)c(-c2cccc(OC)c2)[nH]1)C(=O)Nc1ccc(F)cc1F [Example 195, N-[5-[4,5-bis(3-methoxyphenyl)-1H-imidazol-2-ylthio]pentyl]-N'-(2,4-difluorophenyl)-N-heptylurea] | 40 | 400 | – | –
CCCCN(CCCCCCCCSc1nc(-c2ccccc2)c(-c2ccccc2)[nH]1)C(=O)NC(C)C [Example 262] | 200 | – | – | –
CCCCCCCN(CCCCCSc1nc(-c2ccc(N(C)C)cc2)c(-c2ccc(N(C)C)cc2)[nH]1)C(=O)Oc1ccccc1 [Example 409, Phenyl [5-[4,5-bis(4-(dimethylamino)phenyl)-1H-imidazol-2-ylthio]pentyl]heptylcarbamate] | – | – | – | 120
